Each structure is given as a SMILES string.

`CCCCn1nc(CCc2cccs2)nc1Cc1ccc(-c2ccccc2-c2nnn[nH]2)nc1`: the melting point (commonly the temperature, or range, at which the solid turns liquid) lay in the range of 116 to 118 °C. `Oc1c(Cl)cc2c(-c3ccccc3F)noc2c1Cl`: the melting point was in the range of 194 to 196 °C. On to `COC(=O)C1Cc2ccccc2N1C(=O)C(C)(C)CSC(C)=O` (stereo not drawn), for which the melting point lay within 136 to 138 °C. `COC(=O)C(C)c1ccc2cc(OC(=O)COCc3ccccc3)ccc2c1` (stereo not drawn): the melting point lay within 58 to 60 °C. `COCc1cc2c([N+](=O)[O-])cccc2cn1` had a melting point of 91 °C. Regarding `O=C(Nc1ccc(-n2nc(C3CC3)cc2C2CC2)cc1)c1ccc2nccnc2c1`, the melting point lay within 162 to 167 °C. `Nc1c(SC(F)(F)F)ncn1-c1c(Cl)cc(C(F)(F)F)cc1Cl` came in with a melting point of 134 °C.

Compound `O=c1ccccn1C1=CC(CF)(CF)Oc2ccc(C(F)(F)C(F)(F)F)cc21` yielded a melting point of 137 to 138 °C. With `COc1ccccc1NC(=O)Nc1nc(Nc2ccccc2-c2ccccc2)nc(N(CCC(=O)O)Cc2ccc(-c3ccccc3)cc2)n1`, the melting point is 144 to 147 °C. The same measure for `CC(=O)OCN1C(=O)CN(CCN2CC(=O)N(COC(C)=O)C(=O)C2)CC1=O`: 178 to 181 °C; for `Nc1cc(Cl)c(Br)cc1[N+](=O)[O-]`: 185 to 195 °C; for `Nc1nc2ccc(Sc3ccccc3)cc2s1`: 180 to 182 °C. With `Cn1c(=O)oc2cc(NCCCc3ccccc3)ccc21`, the melting point fell in the range of 97 to 98 °C. With `COC(=O)c1cc(F)c(O)nc1Nc1ccc(F)cc1F` the figure was 222 to 223 °C; with `COc1cc2c(cc1Nc1ncc(Cl)c(Nc3ccccc3OCC#N)n1)CCOC(=O)N2C`, 245 to 247 °C. With `Cc1cc(C)c(C(=O)c2cccc(-n3ccnc3)c2)c(C)c1` the figure was 134 to 136 °C. In turn, `O=C(O)COCCCC1CCCN1c1cnc(-c2ccccc2)c(-c2ccccc2)n1` (stereo not drawn) showed a melting point of 137 to 139 °C. As for `COc1nc2cc(Cl)c(Cl)c(NS(C)(=O)=O)c2nc1OC`, the melting point is 225 to 227 °C. The compound `CNc1nc(SC)ncc1Cl` displayed a melting point of 241 °C. `COCc1cc(C2=C(Cl)CCN(C(=O)c3ccccc3)C2)no1` showed a melting point of 60.5 to 62 °C. `CCOC(=O)c1cc2n(c1)CN(CCC#N)c1ccccc1-2`: the melting point was 102 to 104 °C. For the compound `O=c1oc(-c2ccccc2Cl)cc(O)c1SCc1ccccc1`, the melting point fell in the range of 99 to 101 °C. `CCCNC(=S)Nc1nc2ccc(OC(F)(F)F)cc2s1`: the melting point is 226 to 228 °C. As for `CCCc1nn(C)c2c(=O)n(CCNc3ccc(C(C)=O)cc3)c(-c3ccc(OC)c(OC)c3)nc12`, the melting point was 182 to 184 °C. For the compound `CC(C)C1NC(NC(=O)CCC2CCCCC2)C(=O)N(C)c2ccccc21` (stereo not drawn), the melting point was in the range of 114 to 115 °C. On to `CCc1cc2c(NCc3ccc4c(c3)OCO4)nc(Cl)nc2s1`, for which the melting point was determined as 148 °C. With `CCOC(=O)C(C#N)C1(C#N)C(=O)N(Cc2ccc(F)cc2)c2c(C)cccc21` (stereo not drawn) the figure was 130 to 132 °C; with `CCOC(=O)C(=O)CC(=O)c1cn(CCCCc2ccccc2)c2ccccc2c1=O`, 88 to 90 °C; with `O=[N+]([O-])c1c(-c2ccc(Cl)cc2)[nH]c(SC(F)(F)F)c1Br`, 160 to 165 °C.

`CC(=O)OCc1nnc(-c2ccc3occ(-c4cccc(OC(F)(F)F)c4)c3c2)o1` had a melting point of 93 to 94 °C. `Cc1cc(OCC2CO2)c(N)c([N+](=O)[O-])c1` (stereo not drawn) displayed a melting point of 90 to 91 °C. As for `COc1ccc([N+](=O)[O-])cc1CNC(C)=O`, the melting point fell in the range of 158 to 160 °C.

`COc1cc2c(cc1OC)C(COCCCl)OCCC2` (stereo not drawn) gave a melting point of 90 to 91 °C. Consider `CN1CCN(N=C2CC(c3ccc(C(F)(F)F)cc3)Cc3c2c(=O)c2cc(Cl)ccc2n3O)CC1` (stereo not drawn), for which the melting point is 213 °C. The compound `O=C(O)C/C=C/CC(=O)O` came in with a melting point of 197 to 198 °C. Regarding `CCCC1Sc2c(cc(OC)c(Cl)c2Cl)C1O` (stereo not drawn), the melting point lay within 119 to 120 °C. `COc1cccc2oc(-c3ccc(Cl)cc3)cc(=O)c12` returned a melting point of 171 to 172 °C. Turning to `CCNC(=O)[C@H](C)C[C@H](O)[C@H](CC1CCCCC1)NC(=O)OC(C)(C)C`, the melting point fell in the range of 126 to 127 °C. The same measure for `CC1(C)CC(C)(C)c2cc(NC(=O)c3ccc(O)cc3)ccc21`: 185 to 187 °C. Compound `O=C1Cc2cc(-c3cccc([N+](=O)[O-])c3)ccc2N1` showed a melting point of 269 °C. `Cc1nc(-c2ccc(F)cc2)c(CO)c(C(C)C)c1C#N` came in with a melting point of 150 °C.

`COc1cc(Br)c(OC)c(/C=C/C(=O)/C=C/c2cc(OC)cc(Br)c2OC)c1` had a melting point of 122 to 125 °C. `COc1ccc(COC(=O)c2cc(Br)nn2-c2ncccc2Cl)cc1` registered a melting point of 83 °C. For the compound `CCOC(=O)c1c(C)c(C#N)c(N)c(C#N)c1C`, the melting point was found to be 206 °C. As to `O=C1CCC(CCO)(c2ccc(F)c(F)c2)CN1Cc1ccccc1` (stereo not drawn), the melting point lay within 153 to 154 °C. On to `CC(=O)OCC(N)C(=O)Nn1cccc1` (stereo not drawn), for which the melting point lay within 147 to 148 °C.

`CN(C)CCOc1ccc2sc(C(=O)Nc3ccccc3N)cc2c1` registered a melting point of 191 to 193 °C.

Regarding `COC(CCOS(=O)(=O)c1ccc(C)cc1)CCOS(=O)(=O)c1ccc(C)cc1`, the melting point was determined as 58 °C.

With `CCCCn1c(C)c(C)cc(Oc2nc3ccccc3o2)c1=O`, the melting point was in the range of 106 to 108 °C. With `CCCCC1=NC2(CCCC2)C(=O)N1Cc1ccc(-c2ccccc2S(=O)(=O)Nc2noc(C)c2C)c(COCCF)c1` the figure was 68 to 73 °C. With `O=C(O)C(=O)c1cn(Cc2ccc(F)cc2)c2ccc(OCCc3ccc(F)cc3)cc12` the figure was 171 to 173 °C.

Turning to `CCOC(=O)c1cc(C)c2nc(CC)[nH]c2n1`, the melting point is 151 to 153 °C.

`CC(C)(C)NC(=O)c1ccc(C(F)(F)F)cc1` displayed a melting point of 146 to 148 °C. For `COc1ccc(N2CCN(C(=O)[C@H](Cc3ccccc3)NC(=O)Nc3n[nH]c(=S)s3)CC2)cc1`, the melting point lay within 201 to 203 °C. For `Nc1cc(NC(=O)c2ccccc2)ccn1`, the melting point lay within 187 to 188 °C. Take `Cc1ccc(N2CC(=O)N(c3ccc(S(N)(=O)=O)cc3Cl)C2)cc1`: the melting point fell in the range of 223 to 226 °C.

`COc1ccc(CCN(C)CCC2CN(C)C(=S)c3cccnc3O2)cc1` (stereo not drawn): the melting point was 75 to 78 °C. In the case of `Oc1ccccc1-c1nc(-c2ccc(-c3ccccc3)cc2)nc(-c2ccc3ccccc3c2)n1`, the melting point is 227 to 239 °C. On to `CS(=O)(=O)Nc1cc2occ(C(N)=O)c(=O)c2cc1Oc1ccccc1F`, for which the melting point was 249 to 251 °C. In turn, `COc1ccc(CN2CCN(CCCOc3ccc4c(C)cc(=O)[nH]c4c3)CC2)cc1` returned a melting point of 167 to 168 °C. The same measure for `CC(C)(C)OC(=O)Nc1cccc(C2(O)COC2)c1`: 121 to 123 °C; for `CC=Cc1cc(OC)cc2cc(-c3ccc(OC)cc3)oc12`: 116 to 118 °C; for `CC1NC(=O)NN=C1c1ccc(OCC(=O)NN)c(Cl)c1` (stereo not drawn): 252 to 254 °C. For the compound `CC(=NOCCOc1ccc(CC2SC(=O)N(C(c3ccccc3)(c3ccccc3)c3ccccc3)C2=O)cc1)c1ccc(N(C)S(=O)(=O)c2ccccc2)cc1` (stereo not drawn), the melting point fell in the range of 143 to 145 °C.

`CC[C@H]1c2cc(F)ccc2-c2ccccc2N1C(=O)c1ccc(O)cc1` registered a melting point of 103 to 104 °C. As for `CC(C)(c1ccccc1)n1nnc(-c2ccccc2-c2ccc(C3OCCCO3)cc2)n1`, the melting point fell in the range of 102 to 106 °C. `Cc1cccc2c1N(CC(=O)N1CC3CCC(CC3)C1)C(=O)C(NC(=O)Nc1cccc(O)c1)N=C2c1ccccc1F` (stereo not drawn) gave a melting point of 193 to 204 °C. As for `O=C(Cc1c[nH]c2ccccc12)Nc1cc2c(cn1)[nH]c1ccccc12`, the melting point was in the range of 252 to 254 °C. The compound `CNc1cc(Cl)c(CO)c(Cl)c1` had a melting point of 108 to 111 °C.

`COc1ccc(Nc2nc(Cl)nc(Cl)n2)cc1` gave a melting point of 165 to 168 °C. The compound `O=C(Cl)c1sc2cc(Oc3ccccc3)ccc2c1Cl` returned a melting point of 121 to 123 °C. `NNC(=O)c1ccccc1OCC(F)(F)F` returned a melting point of 102 to 104 °C. The compound `Cc1c(-c2cc(C(C)(C)C)c(O)c(C(C)(C)C)c2)nc2n1CCS2` registered a melting point of 258 to 261 °C. `O=c1cc(C2CCCC2)oc2ccc(OCCCCCCCl)cc12` showed a melting point of 125 to 126 °C. Compound `O=[N+]([O-])c1cn2c(n1)OC[C@@H](OCc1ccc(Br)cn1)C2` showed a melting point of 171 to 173 °C.

`CN1CCC(c2c(O)cc(O)c3c(=O)cc(Oc4ccccc4Cl)oc23)C(O)C1` (stereo not drawn) displayed a melting point of 105 °C. `CCC1N=C(C(N)=O)ON1S(=O)(=O)c1ccccc1Cl` (stereo not drawn) registered a melting point of 142 °C. For the compound `CCOc1cccc(CN2CCc3cc(O)c(OC)cc3C2)c1`, the melting point is 105 to 106 °C.

`CCCCCCOc1cc(-c2cccc(N)c2)c(OCCCCCC)cc1-c1cccc(N)c1` came in with a melting point of 105 to 106 °C. Compound `CCc1cc(OCc2ccccc2)ccc1C(=O)NNC(=O)Cc1cccc(O)c1` came in with a melting point of 190 to 191 °C. For `OC1(c2ccc(Cl)cc2)CN(C(c2ccccc2)c2ccccc2)C1`, the melting point was 108 °C. `COc1cccc(Oc2ncccc2C(=O)NCc2ccccc2Cl)c1`: the melting point was in the range of 71 to 74 °C. In the case of `O=C(O)C(=O)c1ccc(OCc2ccccc2)cc1`, the melting point lay within 97 to 98 °C. For `COc1ccccc1NC1=NN(S(=O)(=O)c2ccc(C)cc2)CC1`, the melting point lay in the range of 176 to 179 °C. The same measure for `Cc1cccc2cc(C(=O)N(C)C)c(C=CNc3ccc(F)cc3)nc12`: 172 to 173 °C; for `O=C(NC1C2CC3CC(C2)CC1C3)c1cc(-c2ccc(Cl)cc2)n(-c2ccc(Cl)cc2Cl)n1` (stereo not drawn): 203 °C; for `CC(=O)Nc1cc2c(cc1[N+](=O)[O-])[C@@H](N1CCCC1=O)[C@H](O)C(C)(C)O2` (relative stereo): 266 to 268 °C.

Regarding `COc1ccc(-c2cc3ccc(C)cc3[nH]2)cc1`, the melting point was 220 °C.
